Laboratory results reported in paper PMC11661381, “Covalent-fragment screening identifies selective inhibitors of multiple Staphylococcus aureus serine hydrolases important for growth and biofilm formation” (Research Square, 2024).

Key:
rFphH [1] = biological target: T1, rFphH (Staphylococcus aureus, UniProt A0A0H2XJL0); assay: Intact protein LC-MS of rFphH with inhibitors; type: binding; details: 1 μM rFphH, 10 μM probe, 1hr
T1 construct: otherwise full-length FphE (Uniprot ID Q2FDS6) and FphH (A0A0H2XJL0) proteins; His6 (3C-cleavable, pETNKI-his-3C-LIC vector) (N); made in house; E. coli is inferred from the pET28a-type vector, IPTG induction and LB/kanamycin
T1 sequence (A0A0H2XJL0 1-246): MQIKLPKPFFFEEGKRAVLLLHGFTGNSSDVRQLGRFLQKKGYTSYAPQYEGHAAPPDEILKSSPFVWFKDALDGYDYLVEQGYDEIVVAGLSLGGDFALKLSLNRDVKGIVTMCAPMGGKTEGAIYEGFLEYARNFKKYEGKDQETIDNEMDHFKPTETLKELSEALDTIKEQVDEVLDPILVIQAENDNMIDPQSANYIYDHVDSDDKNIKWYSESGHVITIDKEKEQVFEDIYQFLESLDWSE
Protocol: Next, 10 μL of the labeled sample was injected and analyzed by LC-MS. […] Protein labeling efficiency was quantified by UV. The acquired mass of protein was deconvoluted using the deconvolution software in Agilent Bioanalysis Software package.

[2] = Stability in aqueous assay buffer by LC/MS; type: physicochemical
Source text: This shift was not observed in the acidic mass spectrometry buffer (0.1% formic acid (FA) in H2O as buffer A, and 0.1% FA in acetonitrile (ACN) as buffer B; SI details). We therefore reasoned that the molecule likely reacts to release the fluoride under neutral pH conditions (Fig. 3c). Given the presence of the amide nitrogen in close proximity to the sulfur (VI) atom we reasoned that it likely produces a saccharine-like structure by a cyclization to release the fluorine atom[31]. This would create a molecule that could then be ring-opened by attack by the active site serine on the sulfur center, resulting in irreversible protein modification. […] We were able to purify the non-cyclized OSF-fragment, X13d under acidic conditions, as well as the cyclized OSF-fragment, X13e. We observed a clear mass difference of 20 Da between the two purified species by LC/MS analysis.

[3] = tested on: Fph enzymes in live S. aureus cells (USA300); assay: Competition of FP-alkyne labeling in live S. aureus cells; type: cell-based, Staphylococcus aureus; details: 100 μM compound, live S. aureus cells
Protocol: One colony of each of S. aureus wild-type and transposon mutants fphB::Tn, fphE::Tn and fphH::Tn picked from growth on a Tryptic soya agar plate were inoculated in 5 mL of Tryptic soya broth (TSB). The overnight bacterial cultures were spun down at 5,000 g for 10 min and pellet was collected. The pellets were washed twice in 1X PBS buffer and resuspended in the same buffer. Cells were first preincubated with the indicated concentrations of inhibitors for 2hr at 37°C. The cells were washed twice with 1X PBS buffer. The resuspended pellets were incubated with Fluorophosphonate-alkyne (FP-alkyne) for 30 min at 37°C. Cells were washed again twice with 1X PBS buffer and resuspended in with 1X PBS and 0.1% Triton–X and lysed by beat beating at 4°C. Next, lysed cells (20 μL) were mixed with 2.16 μL of freshly prepared click mix (0.5 μL of 50 mM CuSO4 in H2O, 1.16 μL of 100 mM BTTAA in DMSO, and 0.5 μL of N3-Cy5 in DMSO) and 1.16 μL of 300 mM sodium ascorbate solution in H2O and incubated at 37 °C for 30 min. Next step, 20 μL of 4X SDS loading buffer was added in each sample and boiled at 100 °C for 10 min. The processed samples were allowed to cool and analyzed by SDS-PAGE (12%) running at 120 V in an electrophoresis chamber. Cy5 fluorescence was imaged using the Cy5 channel on a Typhoon 9410 Imager (Amersham Biosciences).

rFphH [4] = biological target: T1, rFphH; assay: FP-Cy5 active site labeling of recombinant protein, rFphH; type: binding; details: 500 nM rFphH
Protocol: For activity-based protein labeling experiments, 500 nM of rFphB, rFphE and rFphH in 1X PBS and 0.1% Triton–X were preincubated with different concentrations of inhibitors or DMSO for 2hr at room temperature, followed by adding 300 nM of fluorophosphonate (FP) alkyne and incubated for 30 min at room temperature. Next, 20 μL of the reaction volume were mixed with 2.16 μL of freshly prepared click mix (0.5 μL of 50 mM CuSO4 in H2O, 1.16 μL of 100 mM BTTAA in DMSO, and 0.5 μL of N3-Cy5 in DMSO) and 1.16 μL of 300 mM sodium ascorbate solution in H2O. Samples were incubated at 37°C for 30 min, boiled in SDS loading buffer and analyzed by SDS–PAGE. Cy5 fluorescence was imaged using the Cy5 channel on a Typhoon 9410 Imager (Amersham Biosciences).

[5] = tested on: Fph enzymes in S. aureus USA300 WT lysates; assay: Competition of FP labeling in S. aureus lysates; type: binding, Staphylococcus aureus; details: 120 min preincubation
Protocol: Figure 3 Biochemical characterization of fluorosulfate-based fragments. […] (d) LC/MS profiles for X13d and X13e in LC/MS buffer or aqueous buffer. (e) Proposed reaction mechanism of X13d or X13e binding to rFphH, Fluorescence SDS-PAGE image of rFphH for direct visualization of labelling by clickable probes X13d and X13e with Cy5-azide. (f) Native mass spectrometry (MS) characterization of 1μM rFphH alone or after 1hr incubation with 10 μM X13d or X13e. […] (h) Competition of FP-Cy5 labeling of S. aureus lysates. […] The indicated Fph transposon mutants (::Tn) lysates are included to highlight the location of the three enzymes in the gel. All data shown are representative of three independent experiments.
Cells were then lysed and click labeled with sulfo-Cy5 azide and analyzed by SDS-PAGE. […] We hypothesized this lack of competition may have been due to the inability to permeate the cell membranes. For bacteria, the permeability is influenced by the polarity of the compound, measured by clogP. Drugs targeting Gram-negative bacteria show higher polarities (clogP = − 0.1) compared to those targeting Gram-positive bacteria (clogP = 2.1)[32],[33]. […] Overall, this electrophile has a unique mechanism of binding with the active site serine of FphH and may be a valuable new electrophile class to target other serine hydrolases.

recombinant FphH (rFphH) = biological target: T2, recombinant FphH (rFphH) (Staphylococcus aureus, UniProt A0A0H2XJL0); assay: biochemical; details: for selectivity in the dose-dependent response assay (in words): three Fphs tested
T2 sequence (A0A0H2XJL0 1-246): T1 sequence (A0A0H2XJL0 1-246)
Protocol: (§1) Fluorogenic substrate assays were performed as previously described[9],[11],[12]. […] Turnover rates in the linear phase of the reaction (10–20 min) were calculated using GraphPad prism 10.0 software as RFU/min. Rates were normalized by subtracting background hydrolysis rates measured for each substrate in reaction buffer in the absence of protein.
(§2) For the screening, 8 μL of enzyme solution was pipetted into the assay plates containing 50 nL compound and allowed to incubate for one hour at room temperature. […] For four-point dose response plates, 2.5, 10, 25, 50 nL droplets were transferred to get […], 10, 25, 50 μM compound concentrations in the 384 well plates again using an Echo acoustic liquid handler as above. […] Calculations were done with GraphPad Prism 10.0 software. […] IC50 values were derived from the fitted curve.

recombinant FphB (rFphB) = biological target: T3, recombinant FphB (rFphB) (Staphylococcus aureus, UniProt A0A0H2XJG5); type: biochemical; details: enzyme inhibition assay
T3 construct: made in house
T3 sequence (A0A0H2XJG5 entry or part of it): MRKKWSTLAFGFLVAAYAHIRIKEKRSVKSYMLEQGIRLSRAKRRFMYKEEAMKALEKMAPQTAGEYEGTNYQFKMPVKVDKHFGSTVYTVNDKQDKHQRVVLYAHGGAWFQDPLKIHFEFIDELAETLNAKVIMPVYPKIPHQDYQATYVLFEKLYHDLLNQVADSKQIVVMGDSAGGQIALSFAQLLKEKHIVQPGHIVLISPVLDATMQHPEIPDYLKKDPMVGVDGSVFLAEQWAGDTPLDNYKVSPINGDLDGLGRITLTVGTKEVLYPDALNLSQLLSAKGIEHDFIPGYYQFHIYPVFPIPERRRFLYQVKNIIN
Protocol: as §1, §2

rFphE = biological target: T4, rFphE (Staphylococcus aureus, UniProt Q2FDS6); assay: Mass spectrometry of rFphE labeling; type: binding
T4 construct: otherwise full-length FphE (Uniprot ID Q2FDS6) and FphH (A0A0H2XJL0) proteins; His6 (3C-cleavable, pETNKI-his-3C-LIC vector) (N); made in house; E. coli is inferred from the pET28a-type vector, IPTG induction and LB/kanamycin
T4 sequence (Q2FDS6 1-276): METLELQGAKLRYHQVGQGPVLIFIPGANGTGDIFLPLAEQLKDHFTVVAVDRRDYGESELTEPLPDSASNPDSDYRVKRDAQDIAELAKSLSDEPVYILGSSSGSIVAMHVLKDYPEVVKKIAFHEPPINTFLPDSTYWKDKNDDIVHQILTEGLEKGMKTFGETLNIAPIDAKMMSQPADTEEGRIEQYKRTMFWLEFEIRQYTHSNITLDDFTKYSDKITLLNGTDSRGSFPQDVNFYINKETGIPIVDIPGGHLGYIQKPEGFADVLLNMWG

recombinant FphE (rFphE) = biological target: T5, recombinant FphE (rFphE) (Staphylococcus aureus, UniProt Q2FDS6); assay: biochemical; details: from dose response IC50 values
T5 construct: otherwise full-length FphE (Uniprot ID Q2FDS6) and FphH (A0A0H2XJL0) proteins; His6 (3C-cleavable, pETNKI-his-3C-LIC vector) (N); made in house; E. coli is inferred from the pET28a-type vector, IPTG induction and LB/kanamycin
T5 sequence (Q2FDS6 1-276): T4 sequence (Q2FDS6 1-276)
Protocol: as §1, §2

crystal structure = biological target: the molecule itself; assay: crystal structure

## C#Cc1cnccc1NC(=O)c1ccccc1OS(=O)(=O)F [X13d]
rFphH [1]
  mass shift of rFphH (in words): produced the expected mass shift
[2]; pH 7.5 buffer
  conversion in pH 7.5 buffer (in words): rapidly converted to the cyclic version

## O=C(Nc1ccncc1)c1ccccc1OS(=O)(=O)F [X13a]
[3]
  competition of FP labeling in live cells (in words): Neither of the compounds competed with FP labeling in intact cells
rFphH [4]
  competition of FP-Cy5 labeling of rFphH (in words): dose-dependent competition of protein labeling
[5]
  competition of FP labeling in lysates (in words): dose-dependently competed with FP labeling of rFphH as well as rFphE at higher concentrations

## CC1(C)OB(c2cnc3c(c2)CC(=O)N3)OC1(C)C [AF22]
Recombinant FphH (rFphH)
  selectivity in the dose-dependent response assay (in words): quite selective for rFphH

## Cc1ccc(OS(=O)(=O)F)c(C(=O)Nc2ccncc2)c1 [X13]
Recombinant FphH (rFphH); from dose response IC50 values
  selectivity (higher potency) for rFphH over rFphE: ~100 fold
Recombinant FphB (rFphB)
  inhibition of rFphB (in words): no activity against rFphB
[3]
  competition of FP labeling in live cells (in words): Neither of the compounds competed with FP labeling in intact cells
[2]; 1X Phosphate buffer saline pH 7.5, 60 min, absence of protein
  mass shift upon incubation in aqueous buffer: 20 Da
rFphE
  labeling of rFphE by mass-spectrometry (in words): No labeling
rFphH [4]
  competition of FP-Cy5 labeling of rFphH (in words): dose-dependent competition of protein labeling
[5]
  competition of FP labeling in lysates (in words): dose-dependently competed with FP labeling of rFphH as well as rFphE at higher concentrations

## CN1CCCN(C(=O)c2ccc(S(=O)(=O)F)cc2)c2ccccc21 [L17]
Recombinant FphH (rFphH); IC50 (μM) FphH, 5 nM rFphH, 1 hr preincubation, 0.01–50 μM, N.D. = IC50 could not be determined due to incomplete inhibition at the highest concentration tested
  IC50: 3 µM

## Cc1cc(B2OC(C)(C)C(C)(C)O2)ccc1S(N)(=O)=O [Q41]
Recombinant FphH (rFphH)
  selectivity in the dose-dependent response assay (in words): quite selective for rFphH

## C#Cc1cnccc1N1C(=O)c2ccccc2OS1(=O)=O [X13e]
rFphH [1]
  mass shift of rFphH (in words): produced the expected mass shift

## COc1cc(OC)cc(B(O)O)c1 [W41]
Recombinant FphE (rFphE)
  selectivity for rFphE over rFphH: ~100 fold
[3]
  competition of FP labeling in live cells (in words): unable to block FP labeling of any of the Fph enzymes

B1: FphE (fluorophosphonate-binding hydrolase E), S. aureus USA300, crystallography construct (enzyme)
chain: GPGMETLELQGAKLRYHQVGQGPVLIFIPGANGTGDIFLPLAEQLKDHFTVVAVDRRDYGESELTEPLPDSASNPDSDYRVKRDAQDIAELAKSLSDEPVYILGSSSGSIVAMHVLKDYPEVVKKIAFHEPPINTFLPDSTYWKDKNDDIVHQILTEGLEKGMKTFGETLNIAPIDAKMMSQPADTEEGRIEQYKRTMFWLEFEIRQYTHSNITLDDFTKYSDKITLLNGTDSRGSFPQDVNFYINKETGIPIVDIPGGHLGYIQKPEGFADVLLNMWG
notes: also called rFphE; source: E. coli expression from pet28a-(pETNKI-his-3C-LIC-kan), purified (Ni-NTA, size exclusion); tag cleaved with 3C protease
Crystal structure
  binding result: binds
